“And” between values parts separate entries of the source, which are not always exact repeats. Equal entries are not always repeated. Structures can show the parent of a compound that is named as a salt.

This experiment deals with T1, PDE-4A (Homo sapiens, UniProt P27815).
T1 construct: PDE-4A catalytic domain comprising amino acids 342-704; made in house; host or cells: Escherichia coli
T1 sequence (P27815 342-704): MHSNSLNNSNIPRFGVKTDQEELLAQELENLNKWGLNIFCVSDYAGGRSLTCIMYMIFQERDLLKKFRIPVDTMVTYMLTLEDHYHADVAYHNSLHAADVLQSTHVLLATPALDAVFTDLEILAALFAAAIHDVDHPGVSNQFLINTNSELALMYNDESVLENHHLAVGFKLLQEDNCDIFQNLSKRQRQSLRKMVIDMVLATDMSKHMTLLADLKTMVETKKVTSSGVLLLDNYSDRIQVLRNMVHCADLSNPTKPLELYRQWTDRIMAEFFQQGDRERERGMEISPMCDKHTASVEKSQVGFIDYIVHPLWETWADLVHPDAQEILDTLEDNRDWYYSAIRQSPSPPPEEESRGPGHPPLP
Put plainly: PDE-4A inhibitory assay (SPA). Type of experiment: biochemical. The text has this:
Human recombinant PDE-4A catalytic domain comprising amino acids 342-704 was cloned into Escherichia coli and expressed, as described by W. Richter et al., Protein Expression and Purification (2000) 19: 375-383. The other posphodiesterases were either obtained from cell lines of human origin (TPH1 monocytes line for PDE-1, MCF7 for PDE-5) or expressed recombinantly in sf9 insect cells (for PDE-3A, PDE-3B, PDE-7A and PDE-4D) in accordance with an adapted method by Luckow, V. A. et al., in: Recombinant DNA Technology & Applications., (1991) eds. Prokop, Bajpai, R. K. & Ho, C. S., pp 97-152.
The phosphodiesterase activity was determined by the SPA assay as described by the manufacturer Amersham Biosciences and by Horton J. K and Baxendale P. M., Methods Mol. Biol. (1995) 41: 91-105.
The reaction mixtures contained 100 mM Tris-HCl (pH 7.5), 5 mM MgCl2, 3.8 mM 2-mercaptoethanol, and 1 μM cAMP or cGMP as a substrate, the inhibitors at different concentrations and also further components required for the detection of the individual isoenzymes (see below). The reaction was started by adding the enzyme. The operating volume is 100 μl in the wells of a white 96-Well microtiter plate. The test substances were produced as stock solutions in DMSO. The DMSO concentration in the reaction batch was 1% v/v. The PDE activity is not impaired with this DMSO concentration. Having started the reaction by the addition of enzyme, the samples were incubated at 22° C. for 20 min. The reaction was stopped by the addition of SPA bead suspension which contains the zinc sulfate concentration provided according to the manufacturer. Then, the beads are allowed to sediment for 30 min and the plates are analyzed on the luminescence microtiter plate reader Fluostar Optima (BMG Labtechologies).
[^3H]-cAMP was used as a substrate for determining the activity of PDE-2, -3, -4 and -7 and [^3H]-cGMP for determining the activity of PDE-5. The non-specific enzyme activities were determined in the presence of 100 μM rolipram (for PDE-4) and in the presence of 100 μM IBMX (for PDE-3 and -5) and subtracted from the test values. The incubation samples of the PDE-3 assay contain 10 μM rolipram to inhibit possible contaminations by PDE-4. The PDE-2 activity is tested using a SPA assay by Amersham Biosciences in the presence of the PDE-2 activator 5 μM cGMP. […] The selectivity as to PDEs 2, 3 and 5 has a factor of 100 to 10 000.
On to `Cc1cc(-c2ccccc2)nc2sc3c(N4CCNCC4)nc(OCC(F)F)nc3c12` [2-(2,2-Difluoro-ethoxy)-9-methyl-7-phenyl-4-(piperazin-1-yl)-pyrido[3′,2′:4,5]thieno[3,2-d]pyrimidine], for which the half-inhibitory concentration (IC50) – broadly, the point on the concentration scale where inhibition reaches its midpoint – is 2 to 50 nM.
Then `CCc1cc(-c2ccc(C)cc2)nc2sc3c(N4CCNCC4)nc(OCCO)nc3c12` [2-(2-Hydroxy-ethoxy)-9-ethyl-7-(4-methyl-phenyl)-4-(piperazin-1-yl)-pyrido[3′,2′:4,5]thieno[3,2-d]pyrimidine], with 2 to 50 nM.
For `CCOc1nc(N2CCNCC2)c2sc3nc(C(C)C)cc(C(C)C)c3c2n1` [2-Ethoxy-7,9-di-iso-propyl-4-(piperazin-1-yl)-pyrido[3′,2′:4,5]thieno[3,2-d]pyrimidine] the value was 2 to 50 nM; for `CCOc1ccc(-c2cc(CC)c3c(n2)sc2c(N4CCNCC4)nc(OCC)nc23)cc1` [2-Ethoxy-7-(4-ethoxy-phenyl)-9-ethyl-4-(piperazin-1-yl)-pyrido[3′,2′:4,5]thieno[3,2-d]pyrimidine], under 2 nM.
Then `CCOc1nc(N2CCNCC2)c2sc3nc(C)cc(-c4ccccc4)c3c2n1` [2-Ethoxy-7-methyl-9-phenyl-4-(piperazin-1-yl)-pyrido[3′,2′:4,5]thieno[3,2-d]pyrimidine], with 2 to 50 nM; and `CCOc1nc(N2CCNCC2)c2sc3nc(-c4ccc5c(c4)OCCO5)cc(CC)c3c2n1` [2-Ethoxy-9-ethyl-7-(2,3-dihydrobenzo[b][1,4]dioxin-6-yl)-4-(piperazin-1-yl)-pyrido[3′,2′:4,5]thieno[3,2-d]pyrimidine], with under 2 nM; and `CCOc1nc(N2CCNCC2)c2sc3nc(-c4ccc(C)cc4)cc(CC)c3c2n1` [2-Ethoxy-9-ethyl-7-(4-methyl-phenyl)-4-(piperazin-1-yl)-pyrido[3′,2′:4,5]thieno[3,2-d]pyrimidine], with < 2 nM and 2 to 50 nM.
On to `CCOc1nc(N2CCNCC2)c2sc3nc(-c4ccc5c(c4)OCO5)cc(C)c3c2n1` [2-Ethoxy-9-methyl-7-(3,4-methylenedioxyphenyl)-4-piperazin-1-yl-pyrido[3′,2′:4,5]thieno-[3,2-d]pyrimidine], for which the half-maximal inhibitory concentration (IC50) was in the range of 2 to 50 nM.
Then `CCOc1nc(N2CCNCC2)c2sc3nc(-c4ccc(C)cc4)cc(C)c3c2n1` [2-Ethoxy-9-methyl-7-(4-methyl-phenyl)-4-(piperazin-1-yl)-pyrido[3′,2′:4,5]thieno[3,2-d]pyrimidine], with 2 to 50 nM; and `CCOc1nc(N2CCNCC2)c2sc3nc(N4CCOCC4)cc(C)c3c2n1` [2-Ethoxy-9-methyl-7-morpholino-4-(piperazin-1-yl)-pyrido[3′,2′:4,5]thieno[3,2-d]pyrimidine], with 2 to 50 nM.
Molecule `CCOc1nc(N2CCNCC2)c2sc3nc(-c4cccs4)cc(C)c3c2n1` [2-Ethoxy-9-methyl-7-thien-2-yl-9-methyl-4-(piperazin-1-yl)-pyrido[3′,2′:4,5]thieno[3,2-d]pyrimidine] came in with an IC50 of 2 to 50 nM.
Then `CCOc1nc(N2CCNCC2)nc2c1sc1nc(-c3ccc(-c4ccc(C(=O)OC)cc4N)cc3)nc(C)c12` [2′-Amino-4-(4-ethoxy-9-methyl-2-piperazin-1-yl-thieno[2,3-d:4,5-d′]dipyrimidin-7-yl)-biphenyl-4′-carboxylic acid methyl ester], with under 2 nM; and `CCOc1nc(N2CCNCC2)nc2c1sc1nc(-c3ccc(-c4ccc(C(=O)O)cc4N)cc3)nc(C)c12` [2′-Amino-4-(4-ethoxy-9-methyl-2-piperazin-1-yl-thieno[2,3-d:4,5-d′]dipyrimidin-7-yl)-biphenyl-4′-carboxylic acid sodium salt], with 2 to 50 nM.
Then `Cc1cc(-c2ccccc2)nc2sc3c(OCC(F)F)nc(N4CCNCC4)nc3c12` [4-(2,2-Difluoro-ethoxy)-9-methyl-7-phenyl-2-(piperazin-1-yl)-pyrido[3′,2′:4,5]thieno[3,2-d]pyrimidine], with 2 to 50 nM; and `Cc1cc(-c2ccccc2)nc2sc3c(OCCO)nc(N4CCNCC4)nc3c12` [4-(2-Hydroxy-ethoxy)-9-methyl-7-phenyl-2-(piperazin-1-yl)-pyrido[3′,2′:4,5]thieno[3,2-d]pyrimidine], with 2 to 50 nM; and `CCOc1nc(N2CCNCC2)nc2c1sc1nc(-c3ccc(-c4cccc(C(=O)OC)c4)cc3)nc(C)c12` [4-(4-Ethoxy-9-methyl-2-piperazin-1-yl-thieno[2,3-d:4,5-d′]dipyrimidin-7-yl)-biphenyl-3′-carboxylic acid methyl ester], with 2 to 50 nM.
Then `CCOc1nc(N2CCNCC2)nc2c1sc1nc(-c3ccc(-c4cccc(C(=O)O)c4)cc3)nc(C)c12` [4-(4-Ethoxy-9-methyl-2-piperazin-1-yl-thieno[2,3-d:4,5-d′]dipyrimidin-7-yl)-biphenyl-3′-carboxylic acid potassium salt], with 2 to 50 nM; and `CCOC(=O)c1ccc(-c2ccc(-c3nc(C)c4c(n3)sc3c(OCC)nc(N5CCNCC5)nc34)cc2)cc1` [4-(4-Ethoxy-9-methyl-2-piperazin-1-yl-thieno[2,3-d:4,5-d′]dipyrimidin-7-yl)-biphenyl-4′-carboxylic acid ethyl ester], with 2 to 50 nM; and `CCOc1nc(N2CCNCC2)nc2c1sc1nc(-c3ccc(-c4ccc(C(=O)O)cc4)cc3)nc(C)c12` [4-(4-Ethoxy-9-methyl-2-piperazin-1-yl-thieno[2,3-d:4,5-d′]dipyrimidin-7-yl)-biphenyl-4′-carboxylic acid sodium salt], with 2 to 50 nM.
Molecule `CCOc1nc(N2CCNCC2)nc2c1sc1nc(-c3ccc(NC(=O)OC)cc3)cc(C(F)(F)F)c12` [4-(4-Ethoxy-9-trifluoromethyl-2-piperazin-1-yl-pyrido[3′,2′:4,5]thieno[3,2-d]pyrimidin-7-yl)-phenyl-carbamic acid methyl ester] yielded an IC50 of under 2 nM.
For `CCOc1nc(N2CCNCC2)nc2c1sc1nc(-c3ccc(N4CCCCC4)cc3)cc(C(F)(F)F)c12` [4-Ethoxy-2-(piperazin-1-yl)-7-(4-(piperidin-1-yl)phenyl)-9-trifluoromethyl-pyrido[3′,2′:4,5]thieno[3,2-d]pyrimidine] the value was under 2 nM; for `CCOc1nc(N2CCNCC2)nc2c1sc1nc(-c3ccccn3)cc(C(F)(F)F)c12` [4-Ethoxy-2-piperazin-1-yl-7-(2-pyridyl)-9-trifluoromethyl-pyrido[3′,2′:4,5]thieno[3,2-d]pyrimidine], 2 to 50 nM.
The molecule `CCOc1nc(N2CCNCC2)nc2c1sc1nc(-c3cc(OC)c(OC)c(OC)c3)cc(C(F)(F)F)c12` [4-Ethoxy-2-piperazin-1-yl-9-trifluoromethyl-7-(3,4,5-trimethoxy-phenyl)-pyrido[3′,2′:4,5]thieno[3,2-d]pyrimidine] displayed a half-maximal inhibitory concentration (IC50) of 2 to 50 nM.
Then `CCOc1nc(N2CCNCC2)nc2c1sc1nc(C(C)C)cc(C(C)C)c12` [4-Ethoxy-7,9-di-iso-propyl-2-(piperazin-1-yl)-pyrido[3′,2′:4,5]thieno[3,2-d]pyrimidine], with 2 to 50 nM; and `CCOc1nc(N2CCNCC2)nc2c1sc1nc(-c3ccc(OC)c(OC)c3)cc(C)c12` [4-Ethoxy-7-(3,4-dimethoxy-phenyl)-9-methyl-2-(piperazin-1-yl)-pyrido[3′,2′:4,5]thieno-[3,2-d]pyrimidine], with 2 to 50 nM; and `CCOc1nc(N2CCNCC2)nc2c1sc1nc(-c3ccc4c(c3)OCO4)cc(C(F)(F)F)c12` [4-Ethoxy-7-(3,4-methylenedioxyphenyl)-2-piperazin-1-yl-9-trifluoromethyl-pyrido[3′,2′:4,5]thieno-[3,2-d]pyrimidine], with under 2 nM.
For `CCOc1nc(N2CCNCC2)nc2c1sc1nc(-c3cccc([N+](=O)[O-])c3)cc(C(F)(F)F)c12` [4-Ethoxy-7-(3-nitro-phenyl)-2-piperazin-1-yl-9-trifluoromethyl-pyrido[3′,2′:4,5]thieno[3,2-d]pyrimidine] the value was under 2 nM.
For `CCOc1nc(N2CCNCC2)nc2c1sc1nc(-c3ccc(-n4cccn4)cc3)cc(C(F)(F)F)c12` [4-Ethoxy-7-(4-(1H-pyrazol-1-yl)-phenyl)-2-piperazin-1-yl-9-trifluoromethyl-pyrido[3′,2′:4,5]thieno[3,2-d]pyrimidine] the value was under 2 nM; for `CCOc1nc(N2CCNCC2)nc2c1sc1nc(-c3ccc(-n4cccn4)cc3)cc(CC)c12` [4-Ethoxy-7-(4-(1H-pyrazol-1-yl)-phenyl)-9-ethyl-2-piperazin-1-yl-pyrido[3′,2′:4,5]thieno[3,2-d]pyrimidine], under 2 nM.

(Values after patent publication US8058285B2, “Substituted pyrido [3′, 2′: 4, 5] thieno [3, 2-D] pyrimidines and pyrido [3′, 2′: 4, 5] furo [3, 2-D] pyrimidines used as inhibitors of the PDE-4 and/or the release of TNF-ALPHA” (The Medicines Company (Leipzig) GmbH, priority 2004, dated 2011).)
